Test results: US20250230193A1, “CYCLIC COMPOUND HAVING SELECTIVE KRAS INHIBITORY EFFECT ON HRAS AND NRAS” (CHUGAI SEIYAKU KABUSHIKI KAISHA, priority 2022, published 2025)
Where a SMILES comes first, the peptide text is derived from it. Bridges are numbered along the chain shown (N, C = ends). [ ]: non-standard residue; d: D form. The star is where a group is joined. hPhe(3-Cl-4-CF3) = N[C@@H](CCc1ccc(C(F)(F)F)c(Cl)c1)C(=O)O; NPrPhe(4-CF3) = CCCN[C@@H](Cc1ccc(C(F)(F)F)cc1)C(=O)O; NEtPhe(4-Me) = CCN[C@@H](Cc1ccc(C)cc1)C(=O)O; NMeGly(cPent) = CN[C@H](C(=O)O)C1CCCC1; Hyp = O=C(O)[C@@H]1C[C@@H](O)CN1; NMeD = CN[C@@H](CC(=O)O)C(=O)O; NMeL = CN[C@@H](CC(C)C)C(=O)O; Morpholide = C1CN(*)CCO1; NMeA = CN[C@@H](C)C(=O)O; Ac5c = NC1(C(=O)O)CCCC1; Aze = O=C(O)[C@@H]1CCN1; Ac4c = NC1(C(=O)O)CCC1; NEtG = CCNCC(=O)O; X45 = C1CCC(*)OC1; Sar = CNCC(=O)O

What was measured:
[1] = biological target: GDP-bound HRAS wild-type protein (Homo sapiens, UniProt P01112); experiment: Binding to HRAS by surface plasmon resonance (SPR), Single Cycle Kinetics; settings: for HRAS/KRAS (ratio of KD value for HRAS to KD value for KRAS): GDP-bound HRAS wild-type vs GDP-bound KRAS wild-type
[2] = biological target: GDP-bound NRAS wild-type protein (Homo sapiens, UniProt P01111); experiment: Binding to NRAS by surface plasmon resonance (SPR), Single Cycle Kinetics; settings: for NRAS/KRAS (ratio of KD value for NRAS to KD value for KRAS): GDP-bound NRAS wild-type vs GDP-bound KRAS wild-type
Sequence of GDP-bound NRAS wild-type protein (P01111 whole entry): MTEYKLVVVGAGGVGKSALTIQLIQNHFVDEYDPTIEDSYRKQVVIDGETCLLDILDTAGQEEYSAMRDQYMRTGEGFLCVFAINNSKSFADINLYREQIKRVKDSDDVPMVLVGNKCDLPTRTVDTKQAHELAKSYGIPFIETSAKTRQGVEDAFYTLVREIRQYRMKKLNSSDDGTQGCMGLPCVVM

Sequence of GDP-bound HRAS wild-type protein (P01112 whole entry): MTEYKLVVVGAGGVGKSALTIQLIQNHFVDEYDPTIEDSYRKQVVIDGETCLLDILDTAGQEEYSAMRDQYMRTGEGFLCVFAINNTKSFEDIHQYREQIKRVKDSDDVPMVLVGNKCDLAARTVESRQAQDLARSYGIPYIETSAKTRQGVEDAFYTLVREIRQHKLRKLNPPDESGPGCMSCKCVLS

CCCN1C(=O)CN(C)C(=O)CN(CC)C(=O)[C@H]([C@@H](C)CC)NC(=O)[C@H](CC(C)C)N(C)C(=O)C[C@@H](C(=O)N2CCOCC2)NC(=O)[C@H](C2CCCC2)N(C)C(=O)C2(CCC2)NC(=O)[C@@H]2CCCN2C(=O)[C@H](CCc2ccc(C(F)(F)F)c(Cl)c2)NC(=O)CN(C)C(=O)[C@@H]1Cc1ccc(C(F)(F)F)cc1 [PP0332] ([NMeL]I[NEtG][Sar][NPrPhe(4-CF3)][Sar][hPhe(3-Cl-4-CF3)]P[Ac4c][NMeGly(cPent)]D-Morpholide; lactam N-11)
HRAS/KRAS (ratio of KD for GDP-bound HRAS wild-type to KD for KRAS) ([1]; SPR): B (a compound having 3 or more and less than 10 is denoted as B)
NRAS/KRAS (ratio of KD for GDP-bound NRAS wild-type to KD for KRAS) ([2]; SPR): B (a compound having 3 or more and less than 10 is denoted as B)

CC[C@H](C)[C@@H]1NC(=O)[C@H](CC)N(C)C(=O)C[C@@H](C(=O)N(C)C)N(C)C(=O)[C@H](C2CCCC2)N(C)C(=O)C2(CCC2)N(C)C(=O)[C@@H]2CCCN2C(=O)[C@H](CCc2cc(F)c(C(F)(F)F)c(F)c2)NC(=O)CN(C)C(=O)[C@H](Cc2ccc(C)cc2)N2CC/C=C\C[C@@H](C2=O)N(C)C(=O)[C@@H]2CCCN2C1=O [PP1786]
HRAS/KRAS (ratio of KD value for HRAS to KD value for KRAS) ([1]; SPR): B (a compound having 3 or more and less than 10 is denoted as B)
NRAS/KRAS (ratio of KD value for NRAS to KD value for KRAS) ([2]; SPR): A (a compound having 10 or more and less than 20 is denoted as A)

CCCN1C(=O)[C@@H]2CCN2C(=O)CN(C)C(=O)[C@H]([C@@H](C)CC)NC(=O)[C@H](CC(C)C)N(C)C(=O)C[C@@H](C(=O)N2CCOCC2)N(C)C(=O)[C@H](C2CCCC2)N(C)C(=O)C2(CCCC2)NC(=O)[C@@H]2C[C@@H](OCC)CN2C(=O)[C@H](CCc2ccc(C(F)(F)F)c(Cl)c2)NC(=O)CN(C)C(=O)[C@@H]1Cc1ccc(C(F)(F)F)cc1 [PP0410] ([NMeL]I[Sar][Aze][NPrPhe(4-CF3)][Sar][hPhe(3-Cl-4-CF3)][Hyp](Et)[Ac5c][NMeGly(cPent)][NMeD]-Morpholide; lactam N-11)
HRAS/KRAS (ratio of KD value with respect to GDP-bound HRAS wild-type protein to KD value with respect to KRAS) ([1]; SPR): B (a compound having 3 or more and less than 10 is denoted as B)
NRAS/KRAS (ratio of KD value with respect to GDP-bound NRAS wild-type protein to KD value with respect to KRAS) ([2]; SPR): C (A compound having a KD ratio of 0.1 or more and less than 3 is denoted as C)

CC[C@H](C)[C@@H]1NC(=O)[C@H](CC(C)C)N(C)C(=O)C[C@@H](C(=O)N(C)C)N(C)C(=O)[C@H](C2CCCC2)N(C)C(=O)C2(CCC2)NC(=O)[C@@H]2C[C@@H](C)CN2C(=O)[C@H](CCc2ccc(C(F)(F)F)c(OC)c2)NC(=O)CN(C)C(=O)[C@H](Cc2ccc(C)cc2)N2CC/C=C\C[C@@H](C2=O)N(C)C(=O)CN(C)C1=O [PP1867]
HRAS/KRAS (ratio of KD value for HRAS to KD value for KRAS) ([1]; SPR): B (a compound having 3 or more and less than 10 is denoted as B)
NRAS/KRAS (ratio of KD value for NRAS to KD value for KRAS) ([2]; SPR): A (a compound having 10 or more and less than 20 is denoted as A)

CCOC[C@H]1C(=O)N[C@@H]([C@@H](C)CC)C(=O)N(C2CC2)CC(=O)N(C)[C@H]2C/C=C\CCN(C2=O)[C@@H](Cc2ccc(C)cc2)C(=O)N(C)CC(=O)N[C@@H](CCc2ccc(C(F)(F)F)c(OC)c2)C(=O)N2C[C@H](OCC)C[C@H]2C(=O)NC2(CC(C)(C)C2)C(=O)N(C)[C@@H](CC(C)(C)C)C(=O)N(C)[C@H](C(=O)N(C)C)CC(=O)N1C [PP2724]
HRAS/KRAS (ratio of KD value with respect to GDP-bound HRAS wild-type protein to KD value with respect to KRAS) ([1]; class symbols): B (a compound having 3 or more and less than 10 is denoted as B)
NRAS/KRAS (ratio of KD value with respect to GDP-bound NRAS wild-type protein to KD value with respect to KRAS) ([2]; class symbols): A (a compound having 10 or more and less than 20 is denoted as A)

CC[C@H](C)[C@@H]1NC(=O)[C@H](CC(C)C)N(C)C(=O)C[C@@H](C(=O)N2CCOCC2)N(C)C(=O)[C@H](C2CCCC2)N(C)C(=O)C2(CCCC2)NC(=O)[C@@H]2CCCN2C(=O)[C@H](CCc2cc(F)c(C(F)(F)F)c(F)c2)NC(=O)CN(C)C(=O)[C@H](Cc2ccc(C(F)(F)F)cc2)N2CCCCC[C@@H](C2=O)N(C)C(=O)[C@H](C)NC1=O [PP0481]
HRAS/KRAS (ratio of KD value with respect to GDP-bound HRAS wild-type protein to KD value with respect to KRAS) ([1]; SPR): B (a compound having 3 or more and less than 10 is denoted as B)
NRAS/KRAS (ratio of KD value with respect to GDP-bound NRAS wild-type protein to KD value with respect to KRAS) ([2]; SPR): B (a compound having 3 or more and less than 10 is denoted as B)

CC[C@H](C)[C@@H]1NC(=O)[C@H](CC(C)C)N(C)C(=O)C[C@@H](C(=O)N2CCOCC2)N(C)C(=O)[C@H](C2CCCC2)N(C)C(=O)C2(CCCC2)NC(=O)[C@@H]2C[C@@H](OC3CCCCO3)CN2C(=O)[C@H](CCc2ccc(C(F)(F)F)c(Cl)c2)NC(=O)CN(C)C(=O)[C@H](Cc2ccc(C)cc2)N(CC)C(=O)[C@@H]2CCN2C(=O)[C@H](C)N(C)C1=O (some centres unmarked) [PP0067] ([NMeL]I[NMeA][Aze][NEtPhe(4-Me)][Sar][hPhe(3-Cl-4-CF3)][Hyp](X45)[Ac5c][NMeGly(cPent)][NMeD]-Morpholide; lactam N-11)
HRAS/KRAS (ratio of KD for GDP-bound HRAS wild-type to KD for KRAS) ([1]; SPR): C (A compound having a KD ratio of 0.1 or more and less than 3 is denoted as C)
NRAS/KRAS (ratio of KD for GDP-bound NRAS wild-type to KD for KRAS) ([2]; SPR): C (A compound having a KD ratio of 0.1 or more and less than 3 is denoted as C)
